# Several values for one entry are separate records, joined by “and”; a condition that tells them apart may be missing. Identical values can stand only once.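 The compound was tested at five concentrations on cells cultured in 96-well plates, with a 48-hour exposure period. At the GI50, growth is halved. TGI: concentration producing complete growth inhibition.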
# Tests used:
# Assay in all cases: inhibition of tumour cell growth, NCI panel, 48 h
# RXF 393 renal = test system: RXF 393 renal
# SNB-75 CNS = test system: SNB-75 CNS
# K-562 leukemia = test system: K-562 leukemia
# LOX IMVI melanoma = test system: LOX IMVI melanoma
# HT29 colon = test system: HT29 colon
# KM12 colon = test system: KM12 colon
# DU-145 prostate = test system: DU-145 prostate
# MDA-MB-435 = test system: MDA-MB-435
# PC-3 prostate = test system: PC-3 prostate
# SF-268 CNS = test system: SF-268 CNS
Structure (SMILES),GI50 (RXF 393 renal),TGI (RXF 393 renal),GI50 (SNB-75 CNS),TGI (SNB-75 CNS),GI50 (K-562 leukemia),TGI (K-562 leukemia),GI50 (LOX IMVI melanoma),TGI (LOX IMVI melanoma),GI50 (HT29 colon),TGI (HT29 colon),GI50 (KM12 colon),TGI (KM12 colon),GI50 (DU-145 prostate),TGI (DU-145 prostate),GI50 (MDA-MB-435),TGI (MDA-MB-435),GI50 (PC-3 prostate),TGI (PC-3 prostate),GI50 (SF-268 CNS),TGI (SF-268 CNS)
C#CCn1cc(C=C2C(=O)NC(=S)NC2=O)c2cc(Cl)ccc21,1.84 µM,3.65 µM,1.37 µM,3.67 µM,2.85 µM,> 100 µM,1.65 µM,3.11 µM,2.21 µM,4.68 µM,1.62 µM,3.33 µM,1.72 µM,3.22 µM,1.92 µM,4.36 µM,2.57 µM,6.89 µM,2.12 µM,5.41 µM
CN1CCN(CCCOc2ccc3ncnc(Nc4ccc(Oc5cccc(F)c5)c(Cl)c4)c3c2)CC1,1.56 µM,3.1 µM,1.4 µM,2.75 µM,1.19 µM,4.34 µM,1.7 µM,3.1 µM,1.55 µM,4.11 µM,1.81 µM,3.39 µM,1.31 µM,2.79 µM,1.67 µM,3.19 µM,1.68 µM,3.45 µM,1.47 µM,3.14 µM
CC(=O)c1c(Nc2ccc(F)c(F)c2F)[nH]c2c(F)cc(F)cc2c1=O,0.3 µM,2.41 µM,0.289 µM,8.52 µM,0.347 µM,> 100 µM,0.333 µM,11.3 µM,0.356 µM,17.5 µM,0.342 µM,5.57 µM,0.403 µM,> 100 µM,0.365 µM,7.26 µM,0.252 µM,1.33 µM,0.341 µM,43.1 µM
COc1ccc2c(c1)c(-c1cc(-c3cn(C)c4ccc(OC)cc34)[nH]n1)cn2C,> 100 µM,> 100 µM,> 100 µM,> 100 µM,> 100 µM,> 100 µM,> 100 µM,> 100 µM,> 100 µM,> 100 µM,> 100 µM,> 100 µM,> 100 µM,> 100 µM,> 100 µM,> 100 µM,> 100 µM,> 100 µM,> 100 µM,> 100 µM
CCOC(=O)C(=Cc1c(-c2ccccc2)[nH]c2ccccc12)C(=O)OCC,3.1 µM,12.1 µM,6.55 µM,28.4 µM,3.6 µM,24 µM,5.58 µM,19.4 µM,4.56 µM,17.1 µM,3.51 µM,12 µM,9.69 µM,28.4 µM,3.36 µM,13.6 µM,3.19 µM,14.3 µM,7.46 µM,28.5 µM
COc1ccc2nc3cc(Cl)ccc3c(Nc3ccc(O)c(CN4CCCC4)c3)c2c1,1.7 µM,3.17 µM,1.99 µM,3.79 µM,1.99 µM,6.44 µM,1.73 µM,3.47 µM,1.32 µM,3.44 µM,3.13 µM,> 100 µM,2.16 µM,4.77 µM,1.76 µM,3.52 µM,3.28 µM,11 µM,3.79 µM,> 100 µM
O=C(O)C(Cc1c[nH]c2ccccc12)N1C(=O)c2ccccc2C1=O (centres undefined),,> 100 µM,,> 100 µM,,,,> 100 µM,,> 100 µM,,> 100 µM,,> 100 µM,,> 100 µM,,> 100 µM,,> 100 µM
O=C1c2c(O)ccc(O)c2C(=O)c2c(NCCNCCO)ccc(NCCNCCO)c21,,0.307 µM and 0.368 µM and 0.493 µM,,0.122 µM and 0.541 µM and 0.218 µM,0.142 µM,1.71 µM and 1.78 µM,,0.191 µM and 0.571 µM and 0.706 µM,,1.05 µM and 0.761 µM and 3.63 µM,0.459 µM,2.58 µM and 2.59 µM and 3.9 µM,,0.0832 µM and 0.465 µM and 0.31 µM,0.297 µM,1.65 µM and 1.07 µM and 1.82 µM,,1.29 µM and 1.45 µM and 1.55 µM,,0.32 µM and 0.696 µM and 0.845 µM
CNc1ccc(N=Nc2cccc3ncccc23)cc1,28.7 µM,> 100 µM,21.2 µM,> 100 µM,19.3 µM,> 100 µM,22.3 µM,> 100 µM,37.5 µM,> 100 µM,34.3 µM,> 100 µM,> 100 µM,> 100 µM,19.7 µM,> 100 µM,15.3 µM,> 100 µM,39.3 µM,> 100 µM
COc1ccc(-c2nn(-c3cccc(Cl)c3)cc2-c2cc(-c3cccs3)no2)cc1,3.49 µM,20.1 µM,3.52 µM,34.7 µM,3.43 µM,> 100 µM,3.04 µM,10.9 µM,3.85 µM,15.1 µM,2.98 µM,11.1 µM,7.08 µM,35.8 µM,3.26 µM,17.3 µM,3.2 µM,36.9 µM,4.94 µM,47.1 µM
COc1ccc(-c2cn(-c3cc(OC)c(OC)c(OC)c3)c(=O)n2-c2ccccc2)cc1,45.4 µM,> 100 µM,30.7 µM,> 100 µM,> 100 µM,> 100 µM,> 100 µM,> 100 µM,60.6 µM,> 100 µM,> 100 µM,> 100 µM,> 100 µM,> 100 µM,> 100 µM,> 100 µM,> 100 µM,> 100 µM,> 100 µM,> 100 µM
NC(=O)c1c(NC(=O)c2cccc(C(F)(F)F)c2)sc2c1CCC(=O)C2,0.352 µM,2.92 µM,0.507 µM,3.84 µM,0.124 µM,,0.356 µM,2.8 µM,0.378 µM,> 100 µM,0.394 µM,2.01 µM,3.73 µM,> 100 µM,0.622 µM,7.68 µM,0.218 µM,2.1 µM,0.429 µM,> 100 µM
CC(=O)Nc1ccc2c(c1)CN1C(=O)c3ccccc3C1=N2,> 100 µM,> 100 µM,> 100 µM,> 100 µM,> 100 µM,> 100 µM,> 100 µM,> 100 µM,,,> 100 µM,> 100 µM,> 100 µM,> 100 µM,> 100 µM,> 100 µM,> 100 µM,> 100 µM,> 100 µM,> 100 µM

# From PubChem BioAssay (NCI)
